Results as given in patent US6780887B1, “Anti-ischemic compounds” (Societe de Conseils de Recherches et d'Applications …, priority 1999, dated 2004).
“Also recorded” adds a separate entry of the source.

Key:
[1] = tested on: purified mitochondria obtained from rat livers; experiment: In vitro mitochondrial respiration (stages III and IV, RCR) of purified mitochondria preincubated with compounds; format: biochemical; conditions: for RCR increase (*): in % relative to the control brought to 100%; for Concentration (optimum concentration at which the effect was observed): RCR increase; for Concentration of maximum/optimal effect on RCR (optimal concentration in pre-incubation): rat liver mitochondria preincubated with compound; for Effect on mitochondria RCR (in words) / Effect on respiration stage IV (in words): in vitro
Description: The mitochondria are isolated according to the method described by Nowicki et al., J. of Cerebral Blood Flow and Metabolism 2, p. […] The mitochondrial respiration is measured by an oxygen electrode connected to a recorder. The RCR represents the respiratory control, and represents the ratio of the oxygen consumption in the presence of an endogenous substrate (glutamate/malate) to the consumption after ADP phosphorylation in ATP.
The RCR has been subsequently calculated.

heart mitochondria = experiment: In vivo effect on heart mitochondria RCR after treatment of rats per os for one day; set-up: species or system rat
Description: The following day, the rats are sacrificed and their mitochondria are isolated from the heart. Their respiratory activity is measured every 15 minutes for the 75 minutes following the isolation procedure.

[2] = tested on: neutrophil adherence to the endothelial cells; experiment: Neutrophil adherence to endothelial cells incubated under hypoxia; format: cell-based, human; conditions: 10^−8 mol/l
Description: After incubation, the cells are co-incubated with a non stimulated human neutrophil suspension.

[3] = tested on: endothelial cells of the human umbilical vein; experiment: Protection of ATP content in endothelial cells incubated under hypoxia; format: cell-based; conditions: for Average maximum protection of the decrease in ATP content induced by hypoxia: endothelial cells
Description: This variability is inherent to the experimental model. Indeed, for each experiment, a different culture is used from different umbilical cord isolated cells and there is a behaviour variability of the cells from one cord to another.

[4] = Stability in human plasma (GC); format: in vitro ADME; conditions: 24 hours, 37° C.
Description: The compounds of examples 1 and 2 have been submitted to stability tests in order to evaluate their behaviour when in contact with plasma after a 3 and 24 hour incubation at a temperature of 37° C. These tests have been performed using GC following the evolution of chromatograms of the different esters compared to an internal standard as a function of time.
The injection of GC/MF pure products has been performed in the following conditions:
injection temperature: 250° C.
initial temperature: 40° C.
final temperature: 250° C.
temperature gradient: 10° C./mn
The different compounds have been prepared as follows: 10 μl of pure compound have been dissolved in 100 μl plasma at a temperature of 37° C. The resulting solution is stirred. After a 3 or 24 hour period of time, 5 μl of internal standard (N-benzylamine) and 1 ml ether are added to the solution maintained at 37° C. The sample is centrifuged for 10 minutes at a rate of 13,000 rpm. 1 μl of the supernatant phase (ether phase) is injected in GC. The sample is then GC analyzed. […] No other peak optionally corresponding to metabolization products is observed.

hepatic mitochondria = experiment: In vivo effect on liver mitochondria RCR after treatment of rats per os for 5 days; set-up: species or system rat; conditions: for Effect on respiration stage IV (in words): liver mitochondria
Description: Following the treatment, the rats are sacrificed. The mitochondria are isolated from the liver and their respiratory activity is measured every 15 minutes for the 75 minutes following the isolation procedure.

Promyelocyte cells = experiment: Etoposide-induced apoptosis in promyelocyte cells; format: cell-based; conditions: cells incubated with etoposide
Description: Promyelocyte cells are incubated in the presence of apoptosis-inducing agents like the etoposide, a type II topoisomerase inhibitor. After incubation, different parameters indicative of the apoptosis are detectable: caspase activation, cytochrome C release by the mitochondria, DNA fragmentation, etc.

[5] = 10^−6 M (optimum concentration)
[6] = 10^−7 M (optimum concentration)
[7] = endothelial cells under hypoxia

For `O=C(CC(=O)O[C@@H]1C=CCC1)O[C@@H]1C=CCC1` [di-(S)-cyclopenten-2-yl malonate, di-(S)-2-cyclopenten-2-yl malonate], the “RCR increase (*)” value [1, 5] was 18% and the “Concentration (optimum concentration at which the effect was observed)” value ([1]; rat liver mitochondria) was 10^−6 M.

With “Ethyl 2,6-dimethyl-N-phenylamido Ethanoate” the “RCR increase (*)” value [1, 5] was 13% and the “Concentration (optimum concentration at which the effect was observed)” value ([1]; rat liver mitochondria) was 10^−6 M.

For `CCOC(=O)CN(C)C(=O)C1CCCCC1` [Ethyl N-methyl-N-cyclohexamido ethanoate, Ethyl N-methyl -N-cyclohexamido Ethanoate], the “RCR increase (*)” value [1, 6] was 15% and the “Concentration (optimum concentration at which the effect was observed)” value ([1]; rat liver mitochondria) was 10^−7 M.

For “Ethyl N-phenylamido Ethanoate [Ethyl N-phenlyamido ethanoate]”, the “RCR increase (*)” value [1, 5] was 6.6% and the “Concentration (optimum concentration at which the effect was observed)” value ([1]; rat liver mitochondria) was 10^−6 M.

In the case of `C=CCOC(=O)C12CC1COC2=O` (centres unmarked) [example 2, 2-propenyl-3-Oxa-2-Oxobicyclo[3.1.0]-hexane-1-carboxylate], the “Optimal concentration in pre-incubation (mass concentration)” value [1] is reported as 0.0183 µg/mL, the “Concentration of maximum/optimal effect on RCR (optimal concentration in pre-incubation)” value [1] is reported as 10^−7 mol/l and the “Effect on mitochondria RCR (in words)” value ([1]; rat liver mitochondria) is reported as “have an action on the RCR”. The “Effect on respiration stage IV (in words)” value ([1]; rat liver mitochondria) was “decrease effect”, the “Heart mitochondria RCR increase” value (heart mitochondria; one day treatment, 3.6 mg/kg) was 56% and the “Maximum inhibition of hypoxia induced neutrophil adherence increase” value [2] was 71%. For the same compound, the “Average maximum protection of the decrease in ATP content induced by hypoxia” value ([3]; 10^−4 mol/l) was 92.5%, the “Concentration at which ATP protection becomes negligible” value [3, 7] was 10^−6 mol/l and the “Stability in human plasma (GC peak of compound)” value [4] was “not found any more”. The “Activity on liver mitochondria RCR (in words)” value (hepatic mitochondria; 5 days, 0.18 mg/kg) was “weakly active”, the “Mitochondria RCR increase (maximum)” value (hepatic mitochondria; 5 days, 3.6 mg/kg, liver) was 17% and the “Effect on respiration stage IV (in words)” value (hepatic mitochondria; 5 days) was “decrease”.

With `O=C(CC(=O)Nc1ccccc1)Nc1ccccc1` [N,N′-diphenylmalonamide, N-N′-diphenyl malonamide] the “RCR increase (*)” value [1, 6] was 5% and the “Concentration (optimum concentration at which the effect was observed)” value ([1]; rat liver mitochondria) was 10^−7 M.

With Dicyclopenten-2-yl malonate [example 1] the “Concentration at which the RCR effect becomes negligible” value ([1]; rat liver mitochondria) was 10^−9 mol/l, the “Concentration of maximum/optimal effect on RCR (optimal concentration in pre-incubation)” value [1] was 10^−6 mol/l and the “Effect on mitochondria RCR (in words)” value ([1]; rat liver mitochondria) was “have an action on the RCR; also recorded: significatively increases”. For the same compound, the “Effect on respiration stage IV (in words)” value ([1]; rat liver mitochondria) was “strongly decreases”, the “Heart mitochondria RCR increase” value (heart mitochondria; one-day treatment, 2.36 mg/kg) was 41% and the “Apoptosis induction (in words)” value (Promyelocyte cells) was “apoptosis induction inhibition is observed”. The “Caspase 3 activation” value (Promyelocyte cells) was “inhibited”, the “Cytochrome C release by the mitochondria” value (Promyelocyte cells) was “inhibited” and the DNA fragmentation (Promyelocyte cells) was “inhibited”. For the same compound, the “Average maximum protection of the decrease in ATP content induced by hypoxia” value ([3]; 10^−4 mol/l to 10^−5 mol/l) was 92.1%, the “Concentration at which ATP protection becomes negligible” value [3, 7] was 10^−8 mol/l and the “Protection of the decrease in ATP content induced by hypoxia (in words)” value [3, 7] was “able to protect reproducibly”. For the same compound, the “Stability in human plasma (GC peak of compound)” value [4] was “still observed”, the “Hepatic mitochondria RCR increase” value (hepatic mitochondria; 5 day treatment, 2.36 mg/kg) was 25% and the “RCR versus control (in words)” value (hepatic mitochondria; 5 days, dose higher than 2.36 mg/kg) was “falls slightly below the control values”. The “Effect on respiration stage IV (in words)” value (hepatic mitochondria; 5 days) was “clear decrease”.
